Results from ChEMBL document CHEMBL1201862, “PubChem BioAssay data set” (2004).
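Interpolation was linear, between the two tested concentrations surrounding the appropriate level; five concentrations were tested over 48 hours in 96-well plates. At the GI50, growth is halved.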 Calls of active or inactive are those of the source. Rule as the data show it: active = GI50 up to about 1.1 µM and inactive = higher.

Assays:
Test in all cases: growth of human tumour cells (NCI), 48 h
[1] = test system: SK-MEL-28
[2] = test system: NCI-H522
[3] = test system: SW-620
[4] = test system: COLO 205
[5] = test system: SF-539
[6] = test system: UO-31
[7] = test system: HCC 2998
[8] = test system: NCI-H460
[9] = test system: HCT-116
[10] = test system: SNB-75
[11] = test system: SN12C
[12] = test system: OVCAR-8
[13] = test system: SR
[14] = test system: SK-MEL-2
[15] = test system: T47D
[16] = test system: IGROV-1
[17] = test system: UACC-257
[18] = test system: NCI/ADR-RES
[19] = test system: HT-29
[20] = test system: DU-145

Measured: GI50

COC(=O)C1=C(O)C(C(=O)OC)[C@]2(O)[C@H](C(=O)OC)[C@H]1C[C@@H](c1cccc(OC)c1)[C@H]2C(=O)OC (some centres not stated)
inactive: [1] 37.6 µM | [2] 6.1 µM | [3] 21.5 µM | [4] 46.1 µM | [5] 32.3 µM | [6] 13.9 µM | [7] 20.5 µM | [8] 22.2 µM | [9] 22.2 µM | [10] 27.5 µM | [11] 22.9 µM | [12] 31.6 µM | [13] 21.9 µM | [14] 17.7 µM | [15] 30.5 µM | [16] 39 µM | [17] 37.7 µM | [18] 29.4 µM | [19] 34.9 µM

O=[N+]([O-])c1ccc(O)c(/C=N/CC2CCCN3CCCCC23)c1 (configuration not stated)
inactive: [2] 26 µM | [20] 42.2 µM | [4] 24.2 µM | [5] 25.6 µM | [6] 34.8 µM | [7] 22.5 µM | [8] 45.8 µM | [9] 44.2 µM | [10] 23.7 µM | [12] 30.8 µM | [16] 43.9 µM | [17] 32.5 µM | [18] 20.7 µM | [19] 35.6 µM

O/N=C1/CCCC/C1=C/C=C/c1ccccc1
inactive: [1] 3.42 µM | [2] 19.1 µM | [3] 26.5 µM | [20] 22.1 µM | [4] 19.4 µM | [5] 20.2 µM | [6] 20.6 µM | [7] 22.1 µM | [8] 22.7 µM | [9] 15.7 µM | [10] 20.4 µM | [11] 17.8 µM | [12] 41.9 µM | [13] 5.71 µM | [14] 17.7 µM | [16] 16.5 µM | [17] 24.9 µM | [19] 18.3 µM

Cc1nc(C(N)=S)sc1C(=O)CC(=O)C(=O)Nc1nc2ccccc2[nH]1
inactive: [1] > 100 µM | [2] > 100 µM | [3] > 100 µM | [5] > 100 µM | [6] > 100 µM | [7] > 100 µM | [8] > 100 µM | [9] > 100 µM | [10] > 100 µM | [11] > 100 µM | [12] > 100 µM | [13] > 100 µM | [14] > 100 µM | [15] > 100 µM | [16] > 100 µM | [17] > 100 µM | [18] > 100 µM | [19] > 100 µM

O=S(=O)(O)c1cc(S(=O)(=O)O)c2c(/N=N/c3ccc(S(=O)(=O)O)c4ccccc34)c(O)ccc2c1
inactive: [1] > 100 µM | [2] > 100 µM | [3] > 100 µM | [20] > 100 µM | [4] > 100 µM | [6] > 100 µM | [9] > 100 µM | [10] > 100 µM | [11] > 100 µM | [12] > 100 µM | [14] > 100 µM | [15] > 100 µM | [16] > 100 µM | [17] > 100 µM | [18] > 100 µM | [19] > 100 µM

CC(=O)C1C(=O)C(=O)N(c2ccc([N+](=O)[O-])cc2[N+](=O)[O-])C1=O (configuration not stated)
inactive: [1] > 100 µM | [2] > 100 µM | [3] > 100 µM | [20] > 100 µM | [4] > 100 µM | [5] > 100 µM | [6] 59.3 µM | [7] > 100 µM | [8] > 100 µM | [9] > 100 µM | [10] > 100 µM | [11] > 100 µM | [12] > 100 µM | [14] > 100 µM | [16] > 100 µM | [17] > 100 µM | [18] > 100 µM | [19] > 100 µM

Nc1ccc2c(c1)Cc1ccccc1-2
inactive: [1] > 100 µM | [3] > 100 µM | [4] > 100 µM | [5] 73.6 µM | [6] 19.5 µM | [7] > 100 µM | [8] 69.8 µM | [9] 81.5 µM | [10] 31.6 µM | [11] > 100 µM | [12] > 100 µM | [13] 52.5 µM | [14] 99.8 µM | [16] 89.9 µM | [17] > 100 µM | [18] > 100 µM | [19] > 100 µM

C#C[C@]1(O)CC[C@H]2[C@@H]3CCc4cc(O)ccc4[C@H]3CC[C@@]21C [ETHINYL ESTRADIOL]
inactive: [1] 65.2 µM | [2] 10.9 µM | [3] 16.1 µM | [4] 31.3 µM | [5] 17.6 µM | [6] > 10 µM | [7] 18.3 µM | [8] 21.7 µM | [9] 23 µM | [10] 12.6 µM | [11] 36.8 µM | [12] 30.2 µM | [13] 16.7 µM | [14] 24.5 µM | [16] 55.5 µM | [17] 41 µM | [19] 13 µM
